The text below walks through data of patent US10314847B2, “Scalarane sesterterpenoid, pharmaceutical composition and topoisomerase II and Hsp90 inhibitor for treating cancer, and use and preparation method thereof” (NATIONAL DONG HWA UNIVERSITY, priority 2017, dated 2019).

The structures appear in SMILES notation. Some results are limits rather than exact numbers.

One data set concerns K562. In words: MTT assay, cytotoxic effect on K562. Conditions: Homo sapiens; K562, molar value in text. It counts as cell-based. The text has this: (§1) The cell lines were obtained from the American Type Culture Collection (ATCC, Manassas, Va., U.S.A.) or the Japanese Collection of Research Biosources (JCRB) Cell Bank (Japan). […] Antibodies against XIAP, NFκB (p65), GADD, CDK 4, HSF 1, ATF 6 and β-tubulin were obtained from Santa Cruz Biotechnology (Santa Cruz, Calif., U.S.A.). The Hybond ECL transfer membrane and ECL Western blotting detection kits were obtained from Amersham Life Sciences (Amersham, U.K.).
(§2) Several cancer cell lines including leukemia K562, Molt 4, and HL 60 cells, prostate cancer LNCaP cells, colon cancer DLD-1 cells and breast cancer T-47D cells were used to evaluate the antiproliferative activity (referring to Table 2).
(In general: Tetrazolium assays rely on reduction of a dye to a coloured formazan, in cell work by metabolically active cells.)

In another data set the test system is Molt 4.
Excerpt: as §1, §2
(§3) It is known that mitochondria are critical intracellular loci of ROS production and ROS exposure can lead to the […] opening. The antioxidant, microsomal GST1, in the inner mitochondrial membrane can interact with the mitochondrial permeability transition (MPT) regulator proteins, such as ANT and/or CypD, to form a MPT pore contributing to mitochondria-mediated cell death. In addition, mitochondrial homeostasis of tumor cells is regulated by an organelle-specific Hsp90 chaperone network.

A further data set deals with U937. In words: MTT assay, cytotoxic effect on U937. The data set is classed as cell-based. The note with it: Homo sapiens, U-937; U937, molar value in text.
Excerpt: as §1, §2

A further data set has as its target T1, human topoisomerase II (Homo sapiens, UniProt P11388).
T1 construct: purchased Topogen
Briefly: Assay of topoisomerase II catalytic inhibitors and poisons (cell-free pHOT1 DNA relaxation/cleavage). The data set is classed as biochemical. Conditions: cell-free system; read-out: Topo II activity IC50 (converted). As for the experimental part: Assay of Topoisomerase II Catalytic Inhibitors and Poisons:
Reactions were terminated by adding 2 μL of 10% SDS to facilitate trapping the enzyme in a cleavage complex, followed by the addition of 2.5 μL of proteinase K (50 μg/mL) to digest the bound protein (incubated at 37° C. for 15 minutes) and finally by adding 0.1 volume of the sample loading dye. The DNA products were analyzed via electrophoresis through vertical 2% agarose gels at 2 voltage/cm in 0.5×TAE buffer. Gels were stained with ethidium bromide (EtBr) and photographed using an Eagle Eye II system (Stratagene, La Jolla, Calif., U.S.A.). The quantitative analysis of the DNA Topo II activity was performed.

Data set [1] concerns Molt 4 cells. In words: Annexin V/PI apoptosis assay. The data set is classed as cell-based, human. The note with it: Molt 4 cells, 0.0625, 0.125 and 0.25 μg/mL, 24 hours, dose-dependent. As for the experimental part: Annexin V/Propidium Iodide (PI) Apoptosis Assay:
The externalization of phosphatidylserine (PS) and membrane integrity were quantified using an annexin V-fluorescein isothiocyanate (annexin V-FITC) staining kit. In brief, 10^6 cells were grown in 35 mm diameter plates and were labeled with annexin V-FITC (10 μg/mL) and PI (20 μg/mL) prior to harvesting. After labeling, all plates were washed with a binding buffer and harvested. Cells were resuspended in the binding buffer at a concentration of 2×10^5 cells/mL before analysis by flow cytometer FACS-Calibur (Becton-Dickinson, San Jose, Calif., U.S.A.) and CellQuest software. Approximately 10,000 cells were counted for each determination.

In data set [2] the test system is Molt 4 cells. Briefly: Intracellular calcium accumulation (Fluo 3, flow cytometry). It counts as cell-based, human. The protocol: Determination of Reactive Oxygen Species (ROS) Generation, Calcium Accumulation, and Matrix Metalloproteinase (MMP) Disruption:
MMP disruption, calcium accumulation and ROS generation were detected with the JC-1 cationic dye (5 μg/mL), the fluorescent calcium indicator (Fluo 3, […]) and the carboxy derivative of fluorescein (carboxy-H2DCFDA, […]), respectively. In brief, the treated cells were labeled with a specific fluorescent dye for 30 minutes. After labeling, cells were washed with PBS and resuspended in PBS at a concentration of 1×10^6 cells/mL before analysis via flow cytometry.
Oxidative stress is manifested by ROS overexpression and cannot be balanced by the available antioxidant machinery. Compound 1 of the present invention can damage the integrity of mitochondria, which are the major production sites of the superoxide anion, […]. The induction of the intracellular formation of ROS by compound 1 was determined with a carboxyl derivative of fluorescein, carboxy-H2DCFDA dye using flow cytometric analysis. […] Furthermore, the effect of compound 1 on the release of intracellular Ca^2+, was evaluated using fluorescent calcium indicator, Fluo 3. […] Thus, the effect of compound 1 (0.0625 μg/mL) at different time intervals (0, 3, 6 and 9 hours) on the level of nuclear DNA integrity was determined. […]
(Calcium assays in cells follow changes in intracellular calcium, usually with a dye or a luminescent sensor.)

Data set [3] deals with apoptosis-related proteins. Briefly: Western blot of apoptosis-related proteins. The data set is classed as cell-based, human. The note with it: Molt 4 cells, time-dependent. As for the experimental part: Oxidative stress is manifested by ROS overexpression and cannot be balanced by the available antioxidant machinery. Compound 1 of the present invention can damage the integrity of mitochondria, which are the major production sites of the superoxide anion, […]. The induction of the intracellular formation of ROS by compound 1 was determined with a carboxyl derivative of fluorescein, carboxy-H2DCFDA dye using flow cytometric analysis. […] In addition, ROS generation could induce ER stress leading to mitochondria-related apoptosis. To further investigate if ER stress is involved in the apoptotic effect induced by compound 1, Western blot analysis was used to determine the expression of ER stress-related proteins. […] Furthermore, the effect of compound 1 on the release of intracellular Ca^2+, was evaluated using fluorescent calcium indicator, Fluo 3. […] In FIG. 4(D), the induction of the typical executor caspases-3 and -7, and γH2AX, was also observed using Western blot analysis. To confirm the induction of DNA damage by compound 1 in Molt 4 cells, a comet assay under neutral electrophoresis condition was utilized. Thus, the effect of compound 1 (0.0625 μg/mL) at different time intervals (0, 3, 6 and 9 hours) on the level of nuclear DNA integrity was determined. […]

Data set [4] has as its target T2, Hsp90 protein (PDB ID: 1YET) (Homo sapiens, UniProt P07900).
T2 construct: Compound 1 could be docked to the N-terminal domain of Hsp90
In words: Molecular docking (Autodock 4.2).
Excerpt: as §3

T1 sequence (P11388 whole entry): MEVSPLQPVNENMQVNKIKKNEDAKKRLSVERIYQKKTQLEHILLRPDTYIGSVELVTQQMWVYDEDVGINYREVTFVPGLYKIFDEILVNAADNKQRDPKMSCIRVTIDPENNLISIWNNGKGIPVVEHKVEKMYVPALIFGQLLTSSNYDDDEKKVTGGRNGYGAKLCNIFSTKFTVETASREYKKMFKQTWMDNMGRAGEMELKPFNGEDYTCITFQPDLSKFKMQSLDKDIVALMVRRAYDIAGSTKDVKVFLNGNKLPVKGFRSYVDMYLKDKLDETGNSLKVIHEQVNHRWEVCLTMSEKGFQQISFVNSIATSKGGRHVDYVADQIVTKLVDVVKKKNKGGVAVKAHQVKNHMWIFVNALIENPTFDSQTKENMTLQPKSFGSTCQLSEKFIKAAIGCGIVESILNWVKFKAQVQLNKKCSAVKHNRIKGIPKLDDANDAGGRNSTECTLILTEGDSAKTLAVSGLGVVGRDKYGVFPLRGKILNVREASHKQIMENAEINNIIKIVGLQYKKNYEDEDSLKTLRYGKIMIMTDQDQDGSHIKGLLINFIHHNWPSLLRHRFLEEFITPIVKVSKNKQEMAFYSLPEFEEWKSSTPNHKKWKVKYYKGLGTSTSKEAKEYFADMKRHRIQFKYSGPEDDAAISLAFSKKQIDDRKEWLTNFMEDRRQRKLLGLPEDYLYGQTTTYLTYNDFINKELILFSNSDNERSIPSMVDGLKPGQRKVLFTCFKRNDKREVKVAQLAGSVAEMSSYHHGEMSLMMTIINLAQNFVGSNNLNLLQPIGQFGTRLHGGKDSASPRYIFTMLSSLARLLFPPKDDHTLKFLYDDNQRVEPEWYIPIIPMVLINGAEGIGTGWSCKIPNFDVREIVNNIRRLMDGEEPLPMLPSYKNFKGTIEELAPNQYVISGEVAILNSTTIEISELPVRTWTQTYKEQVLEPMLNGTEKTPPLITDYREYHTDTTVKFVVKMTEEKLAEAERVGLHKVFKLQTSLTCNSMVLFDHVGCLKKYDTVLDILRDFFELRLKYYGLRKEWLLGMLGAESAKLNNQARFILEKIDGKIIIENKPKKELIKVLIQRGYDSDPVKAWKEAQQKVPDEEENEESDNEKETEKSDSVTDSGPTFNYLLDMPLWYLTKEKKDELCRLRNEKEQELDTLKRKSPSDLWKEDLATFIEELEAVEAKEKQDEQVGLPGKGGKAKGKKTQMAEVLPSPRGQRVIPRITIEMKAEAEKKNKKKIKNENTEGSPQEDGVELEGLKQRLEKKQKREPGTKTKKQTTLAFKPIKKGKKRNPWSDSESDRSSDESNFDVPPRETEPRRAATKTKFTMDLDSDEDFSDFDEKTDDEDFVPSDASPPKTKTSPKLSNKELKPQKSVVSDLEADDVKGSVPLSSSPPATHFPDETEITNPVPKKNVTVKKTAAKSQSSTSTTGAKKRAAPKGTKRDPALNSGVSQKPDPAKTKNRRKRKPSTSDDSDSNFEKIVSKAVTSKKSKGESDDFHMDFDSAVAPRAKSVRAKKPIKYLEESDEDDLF

Consider `CC[C@@]1(C)CCC[C@]2(C)[C@H]3C[C@@H](OC(=O)C[C@@H](C)O)[C@]4(C)[C@@H](C=O)C(C(C)=O)=CC[C@H]4[C@]3(C)CC[C@@H]12` (relative stereo) [Compound 1, 12β-(3′β-hydroxybutanoyloxy)-20,24-dimethyl-24-oxo-scalara-16-en-25-al], for which the IC50 was 2.08 nM in the data set with K562, 2.08 nM with U937 and 3950 nM on human topoisomerase II. In the data set with Molt 4, the “Cytotoxic effect IC50, Molt 4” value was 0.01 µg/mL. In addition, the “Apoptotic population (annexin-V/PI)” value in the data set with Molt 4 cells [1] was “increase in the apoptotic population”. Besides, the “Increase in intracellular Ca2+ accumulation versus MFI of control” value in the data set with Molt 4 cells [2] (2 hours) and with Molt 4 cells [2] (18 hours) was 1.06 folds throughout. In addition, in data set [3], the “Cleavage of apoptosis-related proteins” value was “PARP, caspases-8 and -9 cleavages were significantly increased in a time-dependent manner”. Moreover, the “Potency of Hsp90 inhibition constant relative to 17-AAG” value in data set [4] is recorded as greater than 1430 folds.

One may read the IC50 as the concentration that inhibits the measured activity by half.
